{"source": "patent US7947818B2", "about": "“Heteromolecular metal-humic (chelate) complexes” (priority 2007, dated 2011)", "key": {"[1]": {"system": "cucumber plants (sensitive variety, Anico)", "assay": "Pot study: foliar Fe content of cucumber plants in basic, calcareous soil", "assay_type": "in vivo", "details": "Fe dose 4 ppm; after 30 days of cultivation; soil pH=8.04, % CO3=23%", "description": "Study of the effect of applying a heteromolecular humate-iron citrate complex in cucumber plants (sensitive variety, Anico) cultivated in a basic (pH=8.04), calcareous (% CO3=23%) soil. In this study, performed in pots, the effect of the synthesis chelate of reference in correcting iron chlorosis (Fe-EDDHA orto-orto isomer) was compared to the effect of the heteromolecular humate-Fe citrate complex prepared according to Example 1; in relation to these compounds' capacity to increase iron absorption in cucumber (v anico) plants sensitive to iron chlorosis. The results obtained after 30 days of cultivation are shown in the following figure, where the Fe-EDDHA chelate orto-orto isomer is called (o,o) and the heteromolecular complex is called (H-Cit). The Fe doses applied were: 4 ppm (o, o) and 4 and 8 ppm (H-Cit)."}, "nectarine trees": {"system": "nectarine trees", "assay": "Field study: iron chlorosis and crop of nectarine trees in basic, calcareous soil", "assay_type": "in vivo", "details": "dose d1 (5 g of Fe per tree)", "protocol": "In this study, the effect of the heteromolecular humate-Fe citrate complex on nectarine trees cultivated in a basic, calcareous soil was analysed. This effect was compared to the effect of an Fe EDDHA chelate of reference. This test was performed in a field with a high chlorotic power, wherein a clear response to the standard Fe chelate (Fe EDDHA) is not observed."}}, "data": [{"compound": "O=C([O-])C(NCCNC(C(=O)[O-])c1ccccc1[O-])c1ccccc1[O-].[Fe+3]", "note": "(single isomer, unassigned) [(o,o), Fe-EDDHA orto-orto isomer]", "values": [{"measurement": "increase in foliar Fe content", "setting": "[1]", "value": "approximately 50%"}]}, {"compound": "Fe EDDHA [FeEDDHA]", "values": [{"measurement": "Commercial production increase with respect to control", "setting": "nectarine trees", "value": "+57.9"}, {"measurement": "Crop 21 days after treatment", "setting": "nectarine trees", "value": 5.8, "unit": "kg/tree"}, {"measurement": "Green colour (1-10) 62 days post-treatment", "setting": "nectarine trees; leaves' green colour", "value": 5.3}, {"measurement": "Green colour (1-10) 85 days post-treatment", "setting": "nectarine trees; leaves' green colour", "value": 5.9}]}]}
